This is an account of results in patent US9499550B2 (BRISTOL-MYERS SQUIBB COMPANY, priority 2012, dated 2016).

What is called EC50 is the midpoint of the concentration-response curve.

For assay [1], the system named is HCV genotype 1a (H77 strain) replicon in HUH-7 cells. The assay can be described thus: HCV replicon luciferase reporter assay, genotype 1a. In kind it is cell-based. Conditions: Hepatitis C virus, Huh-7, 72 h, HCV genotype 1a replicon luciferase, 3 days incubation, read-out: LE_1a (EC50, range). In short, it runs like this:
(§1)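 Replicon inhibition for both genotypes was measured as Renilla luciferase signal (EnduRen, 7.5 μM final, 2 h) after 3-day, 37° C exposure of replicon-bearing HUH-7 cells in 4% FCS DMEM, 0.5% DMSO. The 1b construct carries S1179I; the 1a H77 construct carries P1496L and S2204I. Twenty-point, 3-fold dilutions were fitted four-parametrically for EC50, and CC50 was taken from multiplexed Cell Titer-Blue.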

Assay [2] concerns HCV genotype 1b (Con1) replicon in HUH-7 cells. The assay can be described thus: HCV replicon luciferase reporter assay, genotype 1b. In kind it is cell-based. Conditions: Hepatitis C virus, Huh-7, 72 h, HCV genotype 1b replicon luciferase, 3 days incubation, read-out: LE_1b (EC50, range). In short, it runs like this: as §1
(Replicon systems follow genome replication, usually without infectious particles.)

Read-outs that look alike come from different tables or passages of the source.

On to `COc1cc2ccnc(O[C@@H]3C[C@H]4C(=O)N[C@]5(C(=O)NS(=O)(=O)C6(F)CC6)C[C@H]5/C=C\CC[C@@H](C)C[C@@H](C)[C@H](NC(=O)OCC5(C)CC5)C(=O)N4C3)c2cc1F` [Compound 4050, (1-methylcyclopropyl)methyl (2R,6S,7R,9R,13aS,14aR,16aS,Z)-2-(7-fluoro-6-methoxyisoquinolin-1-yloxy)-14a-(1-fluorocyclopropylsulfonylcarbamoyl)-7,9-dimethyl-5,16-dioxo-1,2,3,5,6,7,8,9,10,11,13a,14,14a,15,16,16a-hexadecahydrocyclopropa[e]pyrrolo[1,2-a][1,4]diazacyclopentadecin-6-ylcarbamate], for which the EC50 in assay [1] and in assay [2] was under 5.46 nM each time.
Turning to `COc1cc2ccnc(O[C@@H]3C[C@H]4C(=O)N[C@]5(C(=O)NS(=O)(=O)C6(F)CC6)C[C@H]5/C=C\CC[C@@H](C)C[C@@H](C)[C@H](NC(=O)OCC(C)(C)C)C(=O)N4C3)c2cc1F` [Compound 4051, neopentyl (2R,6S,7R,9R,13aS,14aR,16aS,Z)-2-(7-fluoro-6-methoxyisoquinolin-1-yloxy)-14a-(1-fluorocyclopropylsulfonylcarbamoyl)-7,9-dimethyl-5,16-dioxo-1,2,3,5,6,7,8,9,10,11,13a,14,14a,15,16,16a-hexadecahydrocyclopropa[e]pyrrolo[1,2-a][1,4]diazacyclopentadecin-6-ylcarbamate], the EC50 in assay [1] and in assay [2] was under 5.46 nM in each case.
Consider `COc1cnc(O[C@@H]2C[C@H]3C(=O)N[C@]4(C(=O)NS(=O)(=O)C5(C)CC5)C[C@H]4/C=C\CC[C@@H](C)C[C@@H](C)[C@H](NC(=O)OC(C)(C)C(F)(F)F)C(=O)N3C2)c2ccccc12` [Compound 4052], for which the EC50 in assay [1] and in assay [2] was under 5.46 nM throughout.
For the compound `CCOc1cnc(O[C@@H]2C[C@H]3C(=O)N[C@]4(C(=O)NS(=O)(=O)C5(F)CC5)C[C@H]4/C=C\CC[C@@H](C)C[C@@H](C)[C@H](NC(=O)OC(C)(C)C)C(=O)N3C2)c2ccccc12` [Compound 4053, tert-butyl (2R,6S,7R,9R,13aS,14aR,16aS,Z)-2-(4-ethoxyisoquinolin-1-yloxy)-14a-(1-fluorocyclopropylsulfonylcarbamoyl)-7,9-dimethyl-5,16-dioxo-1,2,3,5,6,7,8,9,10,11,13a,14,14a,15,16,16a-hexadecahydrocyclopropa[e]pyrrolo[1,2-a][1,4]diazacyclopentadecin-6-ylcarbamate], the EC50 in assay [1] and in assay [2] was under 5.46 nM throughout.
As for `COc1ccc2c(O[C@@H]3C[C@H]4C(=O)N[C@]5(C(=O)NS(=O)(=O)C6CC6)C[C@H]5/C=C\CC[C@@H](C)C[C@@H](C)[C@H](NC(=O)OC5(C)CC5)C(=O)N4C3)nccc2c1` [Compound 4054], the EC50 in assay [1] and in assay [2] was under 5.46 nM in each case.
As to `C[C@@H]1CC/C=C\[C@@H]2C[C@@]2(C(=O)NS(=O)(=O)C2(C)CC2)NC(=O)[C@@H]2C[C@@H](Oc3ncc(OC4CC4)c4ccccc34)CN2C(=O)[C@@H](NC(=O)OC2CCCCC2)[C@H](C)C1` [Compound 4055, cyclohexyl (2R,6S,7R,9R,13aS,14aR,16aS,Z)-2-(4-cyclopropoxyisoquinolin-1-yloxy)-7,9-dimethyl-14a-(1-methylcyclopropylsulfonylcarbamoyl)-5,16-dioxo-1,2,3,5,6,7,8,9,10,11,13a,14,14a,15,16,16a-hexadecahydrocyclopropa[e]pyrrolo[1,2-a][1,4]diazacyclopentadecin-6-ylcarbamate], the EC50 in assay [1] and in assay [2] was under 5.46 nM in each case.
`C[C@@H]1CC/C=C\[C@@H]2C[C@@]2(C(=O)NS(=O)(=O)C2(C)CC2)NC(=O)[C@@H]2C[C@@H](Oc3ncc(OC4CC4)c4ccccc34)CN2C(=O)[C@@H](NC(=O)OC(C)(C)C(F)(F)F)[C@H](C)C1` [Compound 4056, 1,1,1-trifluoro-2-methylpropan-2-yl ((2R,6S,7R,9R,13aS,14aR,16aS,Z)-2-((4-cyclopropoxyisoquinolin-1-yl)oxy)-7,9-dimethyl-14a-(((1-methylcyclopropyl)sulfonyl)carbamoyl)-5,16-dioxo-1,2,3,5,6,7,8,9,10,11,13a,14,14a,15,16,16a-hexadecahydrocyclopropa[e]pyrrolo[1,2-a][1,4]diazacyclopentadecin-6-yl)carbamate]: the EC50 in assay [1] and in assay [2] was under 5.46 nM each time.
On to `COc1cnc(O[C@@H]2C[C@H]3C(=O)N[C@]4(C(=O)NS(=O)(=O)C5(C)CC5)C[C@H]4/C=C\CC[C@@H](C)C[C@@H](C)[C@H](NC(=O)OC(C)(C)C)C(=O)N3C2)c2ccccc12` [Compound 4057, tert-butyl (2R,6S,7R,9R,13aS,14aR,16aS,Z)-2-(4-methoxyisoquinolin-1-yloxy)-7,9-dimethyl-14a-(1-methylcyclopropylsulfonylcarbamoyl)-5,16-dioxo-1,2,3,5,6,7,8,9,10,11,13a,14,14a,15,16,16a-hexadecahydrocyclopropa[e]pyrrolo[1,2-a][1,4]diazacyclopentadecin-6-ylcarbamate], for which the EC50 in assay [1] and in assay [2] was under 5.46 nM throughout.
Regarding `COc1cnc(O[C@@H]2C[C@H]3C(=O)N[C@]4(C(=O)NS(=O)(=O)C5CC5)C[C@H]4/C=C\CC[C@@H](C)C[C@@H](C)[C@H](NC(=O)OC(C)(C)C(F)(F)F)C(=O)N3C2)c2cc(F)ccc12` [Compound 4059], the EC50 in assay [1] (GETYPE1A) and in assay [2] (GETYPE1B) was under 5.46 nM each time.
Take `COc1cnc(O[C@@H]2C[C@H]3C(=O)N[C@]4(C(=O)NS(=O)(=O)C5(C)CC5)C[C@H]4/C=C\CC[C@@H](C)C[C@@H](C)[C@H](NC(=O)OC(C)(C)C(F)(F)F)C(=O)N3C2)c2cc(F)ccc12` [Compound 4060]: the EC50 in assay [1] (GETYPE1A) and in assay [2] (GETYPE1B) was under 5.46 nM each time.
With `CCOc1cnc(O[C@@H]2C[C@H]3C(=O)N[C@]4(C(=O)NS(=O)(=O)C5CC5)C[C@H]4/C=C\CC[C@@H](C)C[C@@H](C)[C@H](NC(=O)OC(C)(C)C)C(=O)N3C2)c2cc(F)ccc12` [Compound 4061, tert-butyl (2R,6S,7R,9R,13aS,14aR,16aS,Z)-14a-(cyclopropylsulfonylcarbamoyl)-2-(4-ethoxy-7-fluoroisoquinolin-1-yloxy)-7,9-dimethyl-5,16-dioxo-1,2,3,5,6,7,8,9,10,11,13a,14,14a,15,16,16a-hexadecahydrocyclopropa[e]pyrrolo[1,2-a][1,4]diazacyclopentadecin-6-ylcarbamate], the EC50 in assay [1] and in assay [2] was under 5.46 nM each time.
In the case of `CCOc1cnc(O[C@@H]2C[C@H]3C(=O)N[C@]4(C(=O)NS(=O)(=O)C5CC5)C[C@H]4/C=C\CC[C@@H](C)C[C@@H](C)[C@H](NC(=O)OC(C)(C)C(F)(F)F)C(=O)N3C2)c2cc(F)ccc12` [Compound 4062], the half-maximal effective concentration (EC50) in assay [1] (GETYPE1A) and in assay [2] (GETYPE1B) was under 5.46 nM throughout.
For `COc1ccc2c(O[C@@H]3C[C@H]4C(=O)N[C@]5(C(=O)NS(=O)(=O)C6(C)CC6)C[C@H]5/C=C\CC[C@@H](C)C[C@@H](C)[C@H](NC(=O)OC(C)(C)C)C(=O)N4C3)nc(-c3ccc(OC(C)C)cc3)cc2c1` [Compound 4063, tert-butyl (2R,6S,7R,9R,13aS,14aR,16aS,Z)-2-(3-(4-isopropoxyphenyl)-6-methoxyisoquinolin-1-yloxy)-7,9-dimethyl-14a-(1-methylcyclopropylsulfonylcarbamoyl)-5,16-dioxo-1,2,3,5,6,7,8,9,10,11,13a,14,14a,15,16,16a-hexadecahydrocyclopropa[e]pyrrolo[1,2-a][1,4]diazacyclopentadecin-6-ylcarbamate], the EC50 in assay [1] and in assay [2] was under 5.46 nM in each case.
For `COc1ccc2c(O[C@@H]3C[C@H]4C(=O)N[C@]5(C(=O)NS(=O)(=O)C6(C)CC6)C[C@H]5/C=C\CC[C@@H](C)C[C@@H](C)[C@H](NC(=O)OC(C)(C)C(F)(F)F)C(=O)N4C3)nc(-c3ccc(OC(C)C)cc3)cc2c1` [Compound 4064], the EC50 in assay [1] (GETYPE1A) and in assay [2] (GETYPE1B) was under 5.46 nM in each case.
As for `COc1cnc(O[C@@H]2C[C@H]3C(=O)N[C@]4(C(=O)NS(=O)(=O)C5(C)CC5)C[C@H]4/C=C\CC[C@@H](C)C[C@@H](C)[C@H](NC(=O)OC(C)(C)C(F)(F)F)C(=O)N3C2)c2cccc(Cl)c12` [Compound 4065], the EC50 in assay [1] (GETYPE1A) and in assay [2] (GETYPE1B) was under 5.46 nM in each case.
As to `CCOc1cnc(O[C@@H]2C[C@H]3C(=O)N[C@]4(C(=O)NS(=O)(=O)C5(C)CC5)C[C@H]4/C=C\CC[C@@H](C)C[C@@H](C)[C@H](NC(=O)O[C@H](C)C(F)(F)F)C(=O)N3C2)c2ccccc12` [Compound 4066, (R)-1,1,1-trifluoropropan-2-yl (2R,6S,7R,9R,13aS,14aR,16aS,Z)-2-(4-ethoxyisoquinolin-1-yloxy)-7,9-dimethyl-14a-(1-methylcyclopropylsulfonylcarbamoyl)-5,16-dioxo-1,2,3,5,6,7,8,9,10,11,13a,14,14a,15,16,16a-hexadecahydrocyclopropa[e]pyrrolo[1,2-a][1,4]diazacyclopentadecin-6-ylcarbamate], the EC50 in assay [1] and in assay [2] was under 5.46 nM in each case.
`C[C@@H]1CC/C=C\[C@@H]2C[C@@]2(C(=O)NS(=O)(=O)C2CC2)NC(=O)[C@@H]2C[C@@H](Oc3ncc(OCC4CC4)c4ccc(F)cc34)CN2C(=O)[C@@H](NC(=O)OC(C)(C)C(F)(F)F)[C@H](C)C1` [Compound 4067]: the EC50 in assay [1] (GETYPE1A) is 4.82 to 103 nM; in assay [2] (GETYPE1B) it was under 5.46 nM.
Take `COc1cnc(O[C@@H]2C[C@H]3C(=O)N[C@]4(C(=O)NS(=O)(=O)C5(F)CC5)C[C@H]4/C=C\CC[C@@H](C)C[C@@H](C)[C@H](NC(=O)OC(C)(C)C(F)(F)F)C(=O)N3C2)c2cc(F)ccc12` [Compound 4068]: the EC50 in assay [1] (GETYPE1A) and in assay [2] (GETYPE1B) was under 5.46 nM each time.
